In patent US20060063784A1, “Method of using substituted pyrazolo [1,5-a] pyrimidines” (priority 2004, published 2006) one finds IC50 data, which are given here for 29 compounds.

Experiment [1] relates to 80S14 (p21-deficient) cells. Description: Cytotoxicity assay using isogenic cell lines: IC50 in 80S14 (p21-deficient) cells, SRB. It is filed as cell-based, human. Put shortly:
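80S14 (p21-deficient) cells seeded at 12,000 cells/well overnight, then exposed 5 days at 37 °C to serial dilutions (5 pM–50 μM or 170 pg/ml–10 μg/ml). TCA-fixed, sulforhodamine B-stained, absorbance at 560 nm; IC50 taken from cytotoxicity curves versus untreated controls.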

In another experiment the test system is LoVo Colon cell line. Description: Cytotoxicity assay using LoVo colon cell line, SRB. It is filed as cell-based. The conditions noted are these: read-out: Inhibition of LoVo. The gist of the method:
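LoVo cells (4000/well, RPMI 1640 with 10% FBS, 37 °C, 7% CO2) seeded overnight, then exposed 4 days to serial dilutions spanning 5 pM-20 μM or 170 pg/ml-10 μg/ml. Survival by SRB staining; IC50 from curves relative to untreated controls.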

Setting [2] is: Homo sapiens, 120 h, 80S14 (p21-deficient) cells, 5 days, SRB, class symbols, read-out: IC50 for 80S14.
Where [3] appears, read: Homo sapiens, 96 h, Cellular activity in LoVo cell, 4 days incubation, SRB.
[4] abbreviates: Homo sapiens, 120 h, 80S14 p21-deficient cells, 5 days incubation, SRB, read-out: IC50 for 80SI4.
The mark [5] stands for this setting: Homo sapiens, 96 h, LoVo colon cells, 4 days incubation, SRB.
[6] abbreviates: Homo sapiens, 80S14, 120 h, read-out: IC50 for 80S14 (uM).

Read-outs that look alike come from different tables or passages of the source.

With `O=C(c1cccs1)c1cnn2c(-c3cccc(N4CCCC4=O)c3)ccnc12` [Example 437, 1-{3-[3-(Thien-2-ylcarbonyl)pyrazolo[1,5-a]pyrimidin-7-yl]phenyl}pyrrolidin-2-one], the IC50 in experiment [1] (setting [2]) is < 1 µM; with LoVo Colon cell line (setting [3]), < 100 nM.
For `O=C(Nc1cc(-c2ccnc3c(C(=O)c4cccs4)cnn23)ccc1F)c1ccccc1Cl` [Example 376, 2-Chloro-N-{2-fluoro-5-[3-(thien-2-ylcarbonyl)pyrazolo[1,5-a]pyrimidin-7-yl]phenyl}benzamide] the same measures were < 1 µM and < 100 nM.
Consider `Cc1cc(-c2cccc(NC(=O)OC(C)C)c2)n2ncc(C(=O)c3cccs3)c2n1` [Example 197, isopropyl 3-[5-methyl-3-(thien-2-ylcarbonyl)pyrazolo[1,5-a]pyrimidin-7-yl]phenylcarbamate], for which the figures for the IC50 (in experiment [1] (setting [4]); in the experiment with LoVo Colon cell line (setting [5])) were < 1 µM and < 100 nM, respectively.
For `O=C(O)CCCC(=O)Nc1cccc(-c2ccnc3c(C(=O)c4cccs4)cnn23)c1` [Example 444, 5-Oxo-5-({3-[3-(thien-2-ylcarbonyl)pyrazolo[1,5-a]pyrimidin-7-yl]phenyl}amino)pentanoic acid], the IC50 in experiment [1] (setting [2]) is 10 to 50 µM; in the experiment with LoVo Colon cell line (setting [3]) it was 1000 to 20000 nM.
For `CC(CNc1cccc(-c2ccnc3c(C(=O)c4cccs4)cnn23)c1)c1ccccc1` (stereo not shown) [Example 378, (7-{3-[(2-Phenylpropyl)amino]phenyl}pyrazolo[1,5-a]pyrimidin-3-yl)(thien-2-yl)methanone] the same measures were 1 to 10 µM and 1000 to 20000 nM.
For `O=C(Nc1cccc(-c2ccnc3c(C(=O)c4cccs4)cnn23)c1)OCCCN1CCOCC1` [Example 425, 3-Morpholin-4-ylpropyl 3-[3-(thien-2-ylcarbonyl)pyrazolo[1,5-a]pyrimidin-7-yl]phenylcarbamate] the same measures were 1 to 10 µM and 100 to 1000 nM.
Turning to `O=C(Nc1cccc(-c2ccnc3c(C(=O)c4cccs4)cnn23)c1)OCCCCCl` [Example 26, 4-chlorobutyl 3-[3-(thien-2-ylcarbonyl)pyrazolo[1,5-a]pyrimidin-7-yl]phenylcarbamate], the IC50 is < 1 µM in experiment [1] (setting [4]) and < 100 nM in the experiment with LoVo Colon cell line (setting [5]).
As for `O=C(c1cccs1)c1cnn2c(-c3cccc(-c4ccc(CNCCN5CCOCC5)cc4)c3)ccnc12` [Example 461, [7-(4′-{[(2-Morpholin-4-ylethyl)amino]methyl}-1,1′-biphenyl-3-yl)pyrazolo[1,5-a]pyrimidin-3-yl](thien-2-yl)methanone], the IC50 lay within 1 to 10 µM in experiment [1] (setting [2]) and 100 to 1000 nM in the experiment on LoVo Colon cell line (setting [3]).
As for “[7-[3-(2-Methyl-1H-imidazol-1-yl)phenyl]-pyrazolo[1,5-a]pyrimidin-3-vy]-2-thienyl-methanone [Example 245]”, the IC50 in experiment [1] (80S14 (p21-deficient) cells, 5 days, SRB, class symbols, read-out: IC50 for 80S14) lay within 10 to 50 µM; with LoVo Colon cell line (Cellular activity in LoVo cell, 4 days incubation, SRB) it was 1000 to 20000 nM.
As to `O=C(O)CCc1ccc(-c2cccc(-c3ccnc4c(C(=O)c5cccs5)cnn34)c2)cc1` [Example 457, 3-{3′-[3-(Thien-2-ylcarbonyl)pyrazolo[1,5-a]pyrimidin-7-yl]-1,1′-biphenyl-4-yl}propanoic acid], the IC50 in experiment [1] (setting [2]) lay in the range of 10 to 50 µM; with LoVo Colon cell line (setting [3]), 100 to 1000 nM.
For `CCCCNc1cccc(-c2ccnc3c(C(=O)c4cccs4)cnn23)c1` [Example 380, {7-[3-(Butylamino)phenyl]pyrazolo[1,5-a]pyrimidin-3-yl}(thien-2-yl)methanone] the same measures were < 1 µM and < 100 nM.
Take `Cc1ccc(-c2ccnc3c(C(=O)c4cccs4)cnn23)cc1NC(=O)OC(C)C` [Example 314, Isopropyl 2-methyl-5-[3-(2-thienylcarbonyl)pyrazolo[1,5-a]pyrimidin-7-yl]phenylcarbamate]: the IC50 is < 1 µM in experiment [1] (setting [6]) and < 100 nM with LoVo Colon cell line (Homo sapiens, LoVo, 96 h).
On to `O=C(c1cccs1)c1cnn2c(-c3cccc(NCc4ccccc4)c3)ccnc12` [Example 349, {7-[3-(Benzylamino)phenyl]pyrazolo[1,5-a]pyrimidin-3-yl}(thien-2-yl)methanone], for which the results for the IC50 (in experiment [1] (setting [2]); in the experiment on LoVo Colon cell line (setting [3])) were 1 to 10 µM and 100 to 1000 nM, respectively.
For `O=C(c1cccs1)c1cnn2c(-c3cccc(-c4nnn(CCN5CCCC5)n4)c3)ccnc12` [Example 511, (7-{3-[2-(2-Pyrrolidin-1-ylethyl)-2H-tetraazol-5-yl]phenyl}pyrazolo[1,5-a]pyrimidin-3-yl)(thien-2-yl)methanone] the same measures were < 1 µM and 100 to 1000 nM.
Consider `CC(C)CC(=O)Nc1ccc(Cl)c(-c2ccnc3c(C(=O)c4cccs4)cnn23)c1` [Example 339, N-{4-Chloro-3-[3-(thien-2-ylcarbonyl)pyrazolo[1,5-a]pyrimidin-7-yl]phenyl}-3-methylbutanamide], for which the IC50 fell in the range of 1 to 10 µM in experiment [1] (setting [6]) and 100 to 1000 nM in the experiment on LoVo Colon cell line (Homo sapiens, LoVo, 96 h).
On to `Nc1cccc(-c2cccc(-c3ccnc4c(C(=O)c5cccs5)cnn34)c2)c1` [Example 451, [7-(3′-Amino-1,1′-biphenyl-3-yl)pyrazolo[1,5-a]pyrimidin-3-yl](thien-2-yl)methanone], for which the IC50 in experiment [1] (setting [2]) was < 1 µM; with LoVo Colon cell line (setting [3]), 100 to 1000 nM.
Consider `CC12CCC(C(=O)Nc3cccc(-c4ccnc5c(C(=O)c6cccs6)cnn45)c3)(OC1=O)C2(C)C` (stereo not shown) [Example 54, 4,7,7-trimethyl-3-oxo-N-{3-[3-(thien-2-ylcarbonyl)pyrazolo[1,5-a]pyrimidin-7-yl]phenyl}-2-oxabicyclo[2.2.1]heptane-1-carboxamide], for which the results for the IC50 (in experiment [1] (setting [4]); in the experiment with LoVo Colon cell line (setting [5])) were < 1 µM and < 100 nM, respectively.
Take `CC(C)C(=O)Nc1cccc(-c2ccnc3c(C(=O)c4cccs4)cnn23)c1` [Example 273, 2-Methyl-N-{3-[3-(2-thienylcarbonyl)pyrazolo[1,5-a]pyrimidin-7-yl]phenyl}propanamide]: the IC50 in experiment [1] (setting [6]) is < 1 µM; in the experiment on LoVo Colon cell line (Homo sapiens, LoVo, 96 h) it was 100 to 1000 nM.
As for `C/C=C/CNc1cccc(-c2ccnc3c(C(=O)c4cccs4)cnn23)c1` [Example 370, (7-{3-[(2E)-But-2-enylamino]phenyl}pyrazolo[1,5-a]pyrimidin-3-yl)(thien-2-yl)methanone], the values for the IC50 (in experiment [1] (setting [2]); in the experiment with LoVo Colon cell line (setting [3])) were < 1 µM and < 100 nM, respectively.
As to `CCN(CC)C(=O)Nc1cccc(-c2ccnc3c(C(=O)c4cccs4)cnn23)c1` [Example 159, N,N-diethyl-N′-{3-[3-(thien-2-ylcarbonyl)pyrazolo[1,5-a]pyrimidin-7-yl]phenyl}urea], the results for the IC50 (in experiment [1] (setting [4]); in the experiment on LoVo Colon cell line (setting [5])) were 1 to 10 µM and 100 to 1000 nM, respectively.
In the case of `CN(C)c1ccc(-c2cc(-c3ccnc4c(C(=O)c5cccs5)cnn34)ccc2F)cc1` [Example 454, {7-[4′-(Dimethylamino)-6-fluoro-1,1′-biphenyl-3-yl]pyrazolo[1,5-a]pyrimidin-3-yl}(thien-2-yl)methanone], the IC50 in experiment [1] (setting [2]) was in the range of 1 to 10 µM; in the experiment with LoVo Colon cell line (setting [3]) it was 100 to 1000 nM.
For `CCNc1cccc(-c2ccnc3c(C(=O)c4cccs4)cnn23)c1` [Example 422, {7-[3-(Ethylamino)phenyl]pyrazolo[1,5-a]pyrimidin-3-yl}(thien-2-yl)methanone] the same measures were 1 to 10 µM and 100 to 1000 nM.
With `COc1ccccc1C(=O)Nc1cccc(-c2ccnc3c(C(=O)c4cccs4)cnn23)c1` [Example 93, 2-methoxy-N-{3-[3-(thien-2-ylcarbonyl)pyrazolo[1,5-a]pyrimidin-7-yl]phenyl}benzamide], the IC50 in experiment [1] (setting [4]) is < 1 µM; in the experiment with LoVo Colon cell line (setting [5]), < 100 nM.
For `Cc1cnc2c(C(=O)c3cccs3)cnn2c1-c1cccc(NC(=O)OCC(C)(C)C)c1` [Example 214, neopentyl 3-[6-methyl-3-(thien-2-ylcarbonyl)pyrazolo[1,5-a]pyrimidin-7-yl]phenylcarbamate], the IC50 lay in the range of 10 to 50 µM in experiment [1] (setting [4]) and 1000 to 2000 nM in the experiment with LoVo Colon cell line (setting [5]).
With `O=C(c1cccs1)c1cnn2c(-c3cccc(-c4nnn[nH]4)c3)ccnc12` [Example 501, {7-[3-(1H-Tetraazol-5-yl)phenyl]pyrazolo[1,5-a]pyrimidin-3-yl}(thien-2-yl)methanone], the figures for the IC50 (in experiment [1] (setting [2]); in the experiment with LoVo Colon cell line (setting [3])) were 10 to 50 µM and 1000 to 20000 nM, respectively.
For `CC(C)CC(=O)Nc1cccc(-c2ccnc3c(-c4cccc(CN5CCN(C)CC5)c4)cnn23)c1` [Example 489, 3-Methyl-N-[3-(3-{3-[(4-methylpiperazin-1-yl)methyl]phenyl}pyrazolo[1,5-a]pyrimidin-7-yl)phenyl]butanamide] the same measures were 1 to 10 µM and 1000 to 20000 nM.
Regarding `Cc1cc(-c2cccc(NC(=O)OCC(C)(C)C)c2)n2ncc(C(=O)c3cccs3)c2n1` [Example 200, neopentyl 3-[5-methyl-3-(thien-2-ylcarbonyl)pyrazolo[1,5-a]pyrimidin-7-yl]phenylcarbamate], the IC50 was < 1 µM in experiment [1] (setting [4]) and 100 to 1000 nM in the experiment with LoVo Colon cell line (setting [5]).
With `COc1ccc(-c2cnn3c(-c4cccc(NC(=O)CC(C)C)c4)ccnc23)cc1` [Example 470, N-{3-[3-(4-Methoxyphenyl)pyrazolo[1,5-a]pyrimidin-7-yl]phenyl}-3-methylbutanamide], the results for the IC50 (in experiment [1] (setting [2]); in the experiment with LoVo Colon cell line (setting [3])) were 10 to 50 µM and 1000 to 20000 nM, respectively.
`CCCC(=O)Nc1cccc(-c2ccnc3c(C(=O)c4cccs4)cnn23)c1` [Example 148, N-{3-[3-(thien-2-ylcarbonyl)pyrazolo[1,5-a]pyrimidin-7-yl]phenyl}butanamide]: the IC50 in experiment [1] (Homo sapiens, 80S14, 120 h, read-out: IC50 for 80SI4 (uM)) is < 1 µM; in the experiment with LoVo Colon cell line (Homo sapiens, LoVo, 96 h) it was < 100 nM.
